# Where two headings read alike, the source gives them in different places.
# Assays:
# L 1210 leukemia = experiment: Antitumor effect on L 1210 leukemia in mice; type: in vivo, mice (CDF1); details: i.p., once daily for 10 days from 24 hours after inoculation of 1×10^6 L 1210 cells i.p.
# Experimental: For example, when CDF1 mice weighing 18 to 22 grams were inoculated with 1×10^6 cells of L 1210 cells intraperitoneally and the compound was administered intraperitoneally once daily for 10 days consecutively 24 hours after inoculation, the survival time of mice was over 200% by T/C(%) at optimum dose as shown in the following table.
# [1] = tested on: murine leukemic L 1210 cells; experiment: Growth inhibition of L 1210 cells in culture; type: cell-based; details: for IC50: Mus musculus; for growth of murine leukemic cells (in words): murine leukemic L 1210 cells in culture
# Experimental: (§1) In an example, L 1210 cells were inoculated in RPMI (Rosewell Park Memorial Institute) 1640 medium containing 20% calf serum at the cell density of 5×10^4 cells/ml, and the compound in the present invention was simultaneously added to the medium at the concentration of 0.1 and 0.5 μg/ml and incubated at 37° C. in a CO2 incubator. 50% growth inhibition concentration of the compound over controls was determined. L 1210 cells as described above were also inoculated at 5×10^5 cells in RPMI 1640 medium containing 10% calf serum and incubated at 37° C. for 1 to 2 hours in a CO2 incubator. The cells were cultured for 15 min. at 37° C. after the compounds according to the present invention at various concentrations were added, and then ^14 C-uridine (0.05 μCi/ml) or ^14 C-thymidine (0.05 μCi/ml) was added and incubated for further 60 min. at 37° C. After stopping the pulse-labeling by addition of 10% trichloroacetic acid (TCA) solution to the reaction mixture, acid-insoluble materials were precipitated, washed three times with 5 to 10% TCA, and dissolved in a small amount of formic acid. Then, radioactivity was determined, and inhibitory effects on the DNA and RNA biosynthesis were indicated by the 50% inhibition concentration (IC50) of the incorporation of radioactivity over controls.
# [2] = tested on: DNA synthesis in murine leukemic L 1210 cells; experiment: DNA biosynthesis in L 1210 cells (14C-thymidine incorporation); type: cell-based; details: Mus musculus, L1210, 15 min with compound then 60 min 14C-thymidine, 37° C.
# Experimental: as §1
# [3] = tested on: RNA synthesis in murine leukemic L 1210 cells; experiment: RNA biosynthesis in L 1210 cells (14C-uridine incorporation); type: cell-based; details: for IC50: Mus musculus, L1210, 15 min with compound then 60 min 14C-uridine, 37° C.; for Inhibition ratio DNA/RNA: ratio of IC50 for DNA synthesis to IC50 for RNA synthesis
# Experimental: 50% growth inhibition concentration of the compound over controls was determined. […] The cells were cultured for 15 min. at 37° C. after the compounds according to the present invention at various concentrations were added, and then ^14 C-uridine (0.05 μCi/ml) or ^14 C-thymidine (0.05 μCi/ml) was added and incubated for further 60 min. at 37° C. After stopping the pulse-labeling by addition of 10% trichloroacetic acid (TCA) solution to the reaction mixture, acid-insoluble materials were precipitated, washed three times with 5 to 10% TCA, and dissolved in a small amount of formic acid.
# [4] = Acute toxicity in mice, single intravenous injection; details: mouse, in vivo
# [5] = L1210, L 1210 cells, RPMI 1640, 20% calf serum, 5×10^4 cells/ml, 37° C., read-out: IC50 Growth
Structure (SMILES),T/C (survival time) (L 1210 leukemia; opt. dose 20 mg/kg/day),"IC50 [1, 5]",IC50 [2],IC50 [3],Inhibition ratio DNA/RNA [3],LD50 [4],T/C (survival time) (L 1210 leukemia; opt. dose 2 mg/kg/day),growth of murine leukemic cells (in words) [1],"IC50 ([1]; L1210, read-out: IC50 Growth)",RNA synthesis of L 1210 cells (in words) [3],T/C (survival time) (L 1210 leukemia; opt. dose 1 mg/kg/day)
CCC1(O)CC(OC2CC(N(C)C)C(OC3CC(O)C(OC4CCC(=O)C(C)O4)C(C)O3)C(C)O2)c2c(cc3c(c2O)C(=O)c2c(O)ccc(O)c2C3=O)C1O (stereo not drawn) [β-Pyrromycin RDC],202%,1 µg/mL,2 µg/mL,1.5 µg/mL,1.3,85.5 mg/kg,,,,,
CCC1(O)CCc2c(O)c3c(c(O)c2C1OC1CC(N(C)C)C(OC2CC(O)C(OC4CCC(O)C(C)O4)C(C)O2)C(C)O1)C(=O)c1cccc(O)c1C3=O (stereo not shown) [γ-Rhodomycin RDRs],,0.09 µg/mL,0.7 µg/mL,0.3 µg/mL,2.3,40.6 mg/kg,203%,,,,
CCC1(O)CC(OC2CC(N(C)C)C(OC3CC(O)C(OC4CCC(=O)C(C)O4)C(C)O3)C(C)O2)c2c(O)c3c(c(O)c2C1O)C(=O)c1cccc(O)c1C3=O (stereo not drawn) [β-Rhodomycin RDC],,0.01 µg/mL,0.57 µg/mL,0.15 µg/mL,3.8,28 mg/kg,306%,suppressed the growth of murine leukemic cells at extremely low concentration,,,
CCC1(O)CC(OC2CC(N(C)C)C(OC3CC(O)C(OC4CCC(=O)C(C)O4)C(C)O3)C(C)O2)c2c(O)c3c(c(O)c2C1C(=O)OC)C(=O)c1c(O)ccc(O)c1C3=O (stereo not shown) [ε-Isorhodomycin RDC],,,1.25 µg/mL,0.11 µg/mL,11.1,28.2 mg/kg,235%,suppressed the growth of murine leukemic cells at extremely low concentration,0.007 µg/mL,inhibited specifically RNA synthesis of L 1210 cells,
CCC1(O)CCc2c(O)c3c(c(O)c2C1OC1CC(N(C)C)C(OC2CC(O)C(OC4CCC(=O)C(C)O4)C(C)O2)C(C)O1)C(=O)c1cccc(O)c1C3=O (stereo not shown) [γ-Rhodomycin RDC],,0.11 µg/mL,0.85 µg/mL,0.28 µg/mL,3.0,39.8 mg/kg,209%,,,,
CCC1(O)CC(OC2CC(N(C)C)C(OC3CC(O)C(OC4CCC(=O)C(C)O4)C(C)O3)C(C)O2)c2c(O)c3c(c(O)c2C1C(=O)OC)C(=O)c1cccc(O)c1C3=O (stereo not shown) [ε-Rhodomycin RDC],,,0.7 µg/mL,0.08 µg/mL,8.8,32.5 mg/kg,240%,suppressed the growth of murine leukemic cells at extremely low concentration,0.01 µg/mL,inhibited specifically RNA synthesis of L 1210 cells,
"COc1cccc2c1C(=O)c1c(O)c3c(c(O)c1C2=O)C[C@@](O)(C(=O)CO)C[C@@H]3O[C@H]1C[C@H](N)[C@H](O)[C@H](C)O1 [Adriamycin, reference compound]",,,,,,14.2 mg/kg,,,,,286%

# From patent US4316011A, “Rhodomycin antibiotics” (Sanraku-Ocean Co., Ltd., priority 1979, dated 1982)
